The source made the active and inactive calls. No cut-off for these calls is given here.
What was measured:
[1] = test system: DNA; assay: Binding affinity to DNA (unknown origin) at 15 uM with 436 nm blue light irradiation incubated for 24 hrs by fluorescence based assay; type: nucleic-acid assay
[2] = test system: DNA; assay: Binding affinity to DNA (unknown origin) assessed as redshift in absorption maxima at 15 uM with […] blue light irradiation incubated for 24 hrs by fluorescence based assay; type: nucleic-acid assay
[3] = test system: HeLa; assay: Phototoxicity against human HeLa cells assessed as cell death at 0.02 to 5 ppm preincubated for 18 hrs under dark condition followed by medium replacement and 436 nm blue light irradiation for 2 mins and measured after 2 hrs by microscopic analysis; type: functional, cell-based; settings: dose 0.02-5 ppm, time 20.03 hrs
[4] = test system: DNA; assay: Binding affinity to DNA (unknown origin) upto 25 uM incubated for 24 hrs in presence of ethidium bromide by […]; type: nucleic-acid assay
[5] = test system: HeLa; assay: Phototoxicity against human HeLa cells assessed as cell death at 0.05 ppm incubated for 18 hrs followed by medium replacement and 436 nm blue light irradiation for 2 mins and measured after 2 hrs by microscopic analysis; type: functional, cell-based
[6] = test system: HeLa; assay: Phototoxicity against human HeLa cells assessed as cell death at 5 ppm incubated for 18 hrs followed by medium replacement and 436 nm blue light irradiation for 2 mins and measured after 2 hrs by microscopic analysis; type: functional, cell-based; settings: time 20.03 hrs
[7] = test system: HeLa; assay: Phototoxicity against human HeLa cells assessed as BAK activation at 1 ppm with 365 and 436 nm light irradiation by Western blot analysis; type: functional, cell-based
[8] = test system: HeLa; assay: Phototoxicity against human HeLa cells assessed as ATM kinase activation at 1 ppm with 365 and 436 nm light irradiation by Western blot analysis; type: functional, cell-based
[9] = test system: HeLa; assay: Phototoxicity against human HeLa cells assessed as cell death at 0.5 ppm preincubated for 1 day followed by UV irradiation for 20 sec; type: functional, cell-based; settings: time 86420.0 sec
[10] = test system: DNA; assay: Binding affinity to DNA (unknown origin) in aqueous media at 15 uM at 436 nm blue light irradiation incubated for 24 hrs by fluorescence based assay; type: nucleic-acid assay
[11] = test system: HeLa; assay: Phototoxicity against human HeLa cells assessed as BAX activation at 1 ppm with 365 and 436 nm light irradiation by Western blot analysis; type: functional, cell-based
[12] = test system: HeLa; assay: Phototoxicity against human HeLa cells assessed as cleaved caspase-3 activation at 1 ppm with 365 and 436 nm light irradiation by Western blot analysis; type: functional, cell-based; settings: time 18.0 hrs
[13] = test system: DNA; assay: Binding affinity to DNA (unknown origin) in aqueous media at 15 uM with > 546 nm blue light irradiation incubated for 24 hrs by CD spectra analysis; type: nucleic-acid assay
[14] = test system: HeLa; assay: Phototoxicity against human HeLa cells assessed as gamma-H2AX activation at 1 ppm with 365 and 436 nm light irradiation by Western blot analysis; type: functional, cell-based
[15] = test system: DNA; assay: Binding affinity to DNA (unknown origin) in aqueous media at 15 uM with 436 nm blue light irradiation incubated for 24 hrs by CD spectra analysis; type: nucleic-acid assay
[16] = test system: HeLa; assay: Phototoxicity against human HeLa cells assessed as BAX activation at 0.1 ppm with 436 nm blue light irradiation by Western blot analysis; type: functional, cell-based; settings: time 20.03 hrs
[17] = test system: HeLa; assay: Phototoxicity against human HeLa cells assessed as cell rounding at 1 nM preincubated for 18 hrs under dark condition followed by medium replacement and 436 nm blue light irradiation for 2 mins and measured after 2 hrs by microscopic analysis; type: functional, cell-based; settings: time 20.03 hrs
[18] = test system: HeLa; assay: Phototoxicity against human HeLa cells assessed as activation of BAX multiplication at 0.1 ppm with 436 nm blue light irradiation by Western blot analysis; type: functional, cell-based
[19] = test system: HeLa; assay: Phototoxicity against human HeLa cells assessed as CHK2 activation at 0.1 ppm with 436 nm blue light irradiation by Western blot analysis; type: functional, cell-based; settings: time 20.03 hrs
[20] = test system: HeLa; assay: Phototoxicity against human HeLa cells assessed as caspase-3 activation at 0.1 ppm with 436 nm blue light irradiation by Western blot analysis; type: functional, cell-based; settings: time 20.03 hrs
[21] = test system: HeLa; assay: Phototoxicity against human HeLa cells assessed as gamma-H2AX activation at 0.1 ppm with 436 nm blue light irradiation by Western blot analysis; type: functional, cell-based; settings: time 20.03 hrs
[22] = test system: HeLa; assay: Phototoxicity against human HeLa cells assessed as BAK activation at 0.1 ppm with 436 nm blue light irradiation by Western blot analysis; type: functional, cell-based; settings: time 20.03 hrs
[23] = test system: HeLa; assay: Phototoxicity in human HeLa cells assessed as cell damage at 0.2 ppm irradiated with 546 nm green light; type: functional, cell-based
[24] = test system: HeLa; assay: Phototoxicity in human HeLa cells assessed as cell damage at 0.2 ppm pre-irradiated with 546 nm green light followed by 436 nm blue light irradiation; type: functional, cell-based
[25] = test system: HeLa; assay: Phototoxicity against human HeLa cells assessed as ATM kinase activation at 0.1 ppm with 436 nm blue light irradiation by Western blot analysis; type: functional, cell-based; settings: time 20.03 hrs
[26] = test system: HeLa; assay: Phototoxicity against human HeLa cells assessed as CHK1 activation at 0.1 ppm with 436 nm blue light irradiation by Western blot analysis; type: functional, cell-based; settings: time 20.03 hrs
[27] = test system: HeLa; assay: Phototoxicity against human HeLa cells assessed as cell shrinkage at 1 nM preincubated for 18 hrs under dark condition followed by medium replacement and 436 nm blue light irradiation for 2 mins and measured after 2 hrs by microscopic analysis; type: functional, cell-based; settings: time 20.03 hrs

**Q.** What does the source list for `C[C@]12SC(c3ccccc3)=CC1=C1C(=C3N=C(c4ccccc4)S[C@@]32C)C(F)(F)C(F)(F)C1(F)F`?
**A.** Activity [1]: Active; Activity [2]: Active; Activity [3]: Active; KSV [4]: 27 10^3/M

**Q.** `CC12N=C(c3ccccc3)SC1=C1C(=C3SC(c4ccccc4)=NC32C)C(F)(F)C(F)(F)C1(F)F` (stereo not given) was tested. Which Activity [5] did it give?
**A.** The Activity was “Active”.

**Q.** For `Cc1cc(-c2ccccc2)sc1C1=C(c2sc(-c3ccccc3)cc2C)C(F)(F)C(F)(F)C1(F)F`, which Activity [6] is on record?
**A.** The Activity was “inactive”.

**Q.** Which Activity [5] does the source give for `CC12C=C(c3ccccc3)SC1=C1C(=C3SC(c4ccccc4)=NC32C)C(F)(F)C(F)(F)C1(F)F` (stereo not given) here?
**A.** Its Activity is “Active”.

**Q.** How did the Activity [1] turn out when `Cc1sc(-c2ccccc2)nc1C1=C(c2nc(-c3ccccc3)sc2C)C(F)(F)C(F)(F)C1(F)F` was run?
**A.** The Activity was “Active”.

**Q.** And the Activity [2]?
**A.** The Activity was “Active”.

**Q.** What about the Activity [7] of the same molecule?
**A.** The Activity was “inactive”.

**Q.** What about the Activity [8] of the same molecule?
**A.** Its Activity is “inactive”.

**Q.** What about the Activity [9] of the same molecule?
**A.** The Activity was “inactive”.

**Q.** What about the Activity [3] of the same molecule?
**A.** The Activity was “inactive”.

**Q.** And the KSV [4]?
**A.** The KSV was 1.6 10^3/M.

**Q.** What about the Activity [10] of the same molecule?
**A.** Its Activity is “Active”.

**Q.** What about the Activity [11] of the same molecule?
**A.** Its Activity is “inactive”.

**Q.** What about the Activity [12] of the same molecule?
**A.** The Activity was “inactive”.

**Q.** And the Activity [13]?
**A.** Its Activity is “inactive”.

**Q.** What about the Activity [14] of the same molecule?
**A.** The Activity was “inactive”.

**Q.** What about the Activity [15] of the same molecule?
**A.** The Activity was “Active”.

**Q.** With `Cc1cc(-c2ccccc2)sc1C1=C(c2sc(-c3ccccc3)nc2C)C(F)(F)C(F)(F)C1(F)F` as the molecule, how does the Activity [6] read?
**A.** The Activity was “inactive”.

**Q.** `Cc1sc(-c2ccccc2)cc1C1=C(c2nc(-c3ccccc3)sc2C)C(F)(F)C(F)(F)C1(F)F` was tested. Which Activity [1] did it give?
**A.** The Activity was “Active”.

**Q.** What about the Activity [2] of the same molecule?
**A.** Its Activity is “Active”.

**Q.** What about the KSV [4] of the same molecule?
**A.** Its KSV is 1.6 10^3/M.

**Q.** `Cc1sc(-c2ccccc2)cc1C1=C(c2cc(-c3ccccc3)sc2C)C(F)(F)C(F)(F)C1(F)F` was tested. Which Activity [1] did it give?
**A.** Its Activity is “Active”.

**Q.** What about the Activity [2] of the same molecule?
**A.** The Activity was “inactive”.

**Q.** And the Activity [3]?
**A.** The Activity was “inactive”.

**Q.** And the KSV [4]?
**A.** The KSV was 1.6 10^3/M.

**Q.** Which Activity [5] does the source give for `CC12C=C(c3ccccc3)SC1=C1C(=C3SC(c4ccccc4)=CC32C)C(F)(F)C(F)(F)C1(F)F` (stereo not given) here?
**A.** Its Activity is “Active”.

**Q.** Which Activity [1] does the source give for `CC12SC(c3ccccc3)=CC1=C1C(=C3C=C(c4ccccc4)SC32C)C(F)(F)C(F)(F)C1(F)F` (stereo not given) here?
**A.** Its Activity is “Active”.

**Q.** What about the Activity [2] of the same molecule?
**A.** Its Activity is “inactive”.

**Q.** And the Activity [3]?
**A.** Its Activity is “inactive”.

**Q.** And the KSV [4]?
**A.** Its KSV is 27 10^3/M.

**Q.** `Cc1nc(-c2ccccc2)sc1C1=C(c2sc(-c3ccccc3)nc2C)C(F)(F)C(F)(F)C1(F)F` was tested. Which Activity [6] did it give?
**A.** Its Activity is “inactive”.

**Q.** Which results are given for `CC12SC(c3ccccc3)=NC1=C1C(=C3N=C(c4ccccc4)SC32C)C(F)(F)C(F)(F)C1(F)F` (stereo not given)?
**A.** Activity [1]: Active; Activity [16]: Active; Activity [17]: Active; Activity [2]: Active; Activity [18]: Active; Activity [19]: Active; Activity [20]: Active; Activity [21]: Active; Activity [22]: Active; Activity [23]: Active; Activity [24]: Active; Activity [3]: Active; KSV [4]: 27 10^3/M; Activity [25]: Active; Activity [26]: Active; Activity [27]: Active

From ChEMBL document CHEMBL5338757, “Phototunable Cell Killing by Photochromic Diarylethene of Thiazoyl and Thienyl Derivatives” (J Med Chem, 2023)
